Laboratory results reported in ChEMBL document CHEMBL4004848, “Dregamine and tabernaemontanine derivatives as ABCB1 modulators on resistant cancer cells” (Eur J Med Chem, 2017).

Tests used:
[1] = target: T1, ATP-dependent translocase ABCB1 (Homo sapiens, UniProt P08183); test: Inhibition of human ABCB1 expressed in mouse L5178Y cells assessed as potentiation of doxorubicin-induced cytotoxicity by measuring combination index at 1:25 doxorubicin to compound ratio after 48 hrs by MTT assay; type: cell-based
T1 sequence (P08183 whole entry): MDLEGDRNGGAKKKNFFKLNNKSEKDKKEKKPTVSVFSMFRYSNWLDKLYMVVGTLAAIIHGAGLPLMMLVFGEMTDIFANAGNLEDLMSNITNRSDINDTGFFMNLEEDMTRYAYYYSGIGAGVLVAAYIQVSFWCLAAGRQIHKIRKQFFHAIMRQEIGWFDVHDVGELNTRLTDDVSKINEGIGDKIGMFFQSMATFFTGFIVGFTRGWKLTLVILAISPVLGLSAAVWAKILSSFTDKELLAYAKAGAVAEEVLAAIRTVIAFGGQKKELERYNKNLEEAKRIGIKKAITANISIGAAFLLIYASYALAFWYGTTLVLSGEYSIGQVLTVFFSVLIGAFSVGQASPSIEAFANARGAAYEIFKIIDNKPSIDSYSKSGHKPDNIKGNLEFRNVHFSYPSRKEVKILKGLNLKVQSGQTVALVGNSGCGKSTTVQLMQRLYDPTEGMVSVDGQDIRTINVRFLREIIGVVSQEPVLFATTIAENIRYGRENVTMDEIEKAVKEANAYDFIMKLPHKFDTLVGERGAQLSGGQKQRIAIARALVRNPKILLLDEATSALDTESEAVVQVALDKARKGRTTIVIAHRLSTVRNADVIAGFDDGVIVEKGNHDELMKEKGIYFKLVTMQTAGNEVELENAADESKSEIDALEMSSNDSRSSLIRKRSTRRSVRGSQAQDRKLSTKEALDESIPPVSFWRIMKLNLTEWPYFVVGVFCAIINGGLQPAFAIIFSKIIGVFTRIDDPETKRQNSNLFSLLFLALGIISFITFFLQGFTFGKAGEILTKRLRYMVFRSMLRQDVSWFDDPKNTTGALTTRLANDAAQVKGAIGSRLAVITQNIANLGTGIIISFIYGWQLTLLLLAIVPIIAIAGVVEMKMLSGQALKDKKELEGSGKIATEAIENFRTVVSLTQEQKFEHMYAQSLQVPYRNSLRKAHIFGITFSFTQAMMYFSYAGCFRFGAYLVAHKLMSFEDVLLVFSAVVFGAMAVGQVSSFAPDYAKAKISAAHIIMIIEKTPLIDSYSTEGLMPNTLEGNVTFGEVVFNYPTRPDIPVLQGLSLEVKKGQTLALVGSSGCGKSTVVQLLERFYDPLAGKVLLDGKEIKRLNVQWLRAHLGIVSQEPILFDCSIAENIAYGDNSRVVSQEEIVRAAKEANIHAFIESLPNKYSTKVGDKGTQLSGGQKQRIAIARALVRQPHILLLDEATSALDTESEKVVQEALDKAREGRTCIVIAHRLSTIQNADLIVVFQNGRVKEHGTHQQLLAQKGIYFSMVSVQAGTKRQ

[2] = target: T1, ATP-dependent translocase ABCB1; test: Inhibition of human ABCB1 expressed in mouse L5178Y cells assessed as fluorescence activity ratio at 20 uM pretreated for 10 mins followed by rhodamine-123 addition after 20 mins by flow cytometry; type: cell-based
[3] = target: T1, ATP-dependent translocase ABCB1; test: Inhibition of human ABCB1 expressed in mouse L5178Y cells pretreated for 10 mins followed by rhodamine-123 addition after 20 mins by flow cytometry; type: cell-based
[4] = target: T1, ATP-dependent translocase ABCB1; test: Inhibition of human ABCB1 expressed in mouse L5178Y cells assessed as increase in rhodamine-123 accumulation by measuring side scatter count of cells at 2 uM pretreated for 10 mins followed by rhodamine-123 addition after 20 mins by flow cytometry (reference value: 903); type: cell-based
[5] = test system: L5178Y; test: Cytotoxicity against mouse L5178Y cells after 24 hrs by MTT assay; type: functional, cell-based
[6] = target: T1, ATP-dependent translocase ABCB1; test: Inhibition of human ABCB1 expressed in mouse L5178Y cells assessed as increase in rhodamine-123 accumulation by measuring side scatter count of cells at 20 uM pretreated for 10 mins followed by rhodamine-123 addition after 20 mins by flow cytometry (reference value: 903); type: cell-based
[7] = target: T1, ATP-dependent translocase ABCB1; test: Inhibition of human ABCB1 expressed in mouse L5178Y cells assessed as fluorescence activity ratio at 2 uM pretreated for 10 mins followed by rhodamine-123 addition after 20 mins by flow cytometry; type: cell-based
[8] = target: T1, ATP-dependent translocase ABCB1; test: Inhibition of human ABCB1 expressed in mouse L5178Y cells assessed as increase in rhodamine-123 accumulation by measuring forward scatter count of cells at 20 uM pretreated for 10 mins followed by rhodamine-123 addition after 20 mins by flow cytometry (reference value: 2206); type: cell-based
[9] = test system: NIH3T3; test: Cytotoxicity against mouse NIH/3T3 cells after 24 hrs by MTT assay; type: cell-based; conditions: NIH3T3, 24 h
[10] = target: T1, ATP-dependent translocase ABCB1; test: Inhibition of human ABCB1 expressed in mouse L5178Y cells assessed as increase in rhodamine-123 accumulation by measuring forward scatter count of cells at 2 uM pretreated for 10 mins followed by rhodamine-123 addition after 20 mins by flow cytometry (reference value: 2206); type: cell-based
[11] = Selectivity index, ratio of IC50 for mouse L5178Y cells to IC50 for human ABCB1 expressed in L5178Y cells
[12] = target: T1, ATP-dependent translocase ABCB1; test: Inhibition of human ABCB1 expressed in mouse L5178Y cells assessed as potentiation of doxorubicin-induced cytotoxicity by measuring combination index at 4:25 doxorubicin to compound ratio after 48 hrs by MTT assay; type: cell-based
[13] = Selectivity index, ratio of IC50 for mouse NIH/3T3 cells to IC50 for mouse L5178Y cells; type: functional
[14] = target: T1, ATP-dependent translocase ABCB1; test: Inhibition of human ABCB1 expressed in mouse L5178Y cells assessed as potentiation of doxorubicin-induced cytotoxicity by measuring combination index at 1:5 doxorubicin to compound ratio after 48 hrs by MTT assay; type: cell-based

| Ratio [2] | inhibition (INH) [3] | Activity [4] | Activity [6] | Ratio [7] | Activity [8] | Activity [10] | SMILES | CI [1] | IC50 [5] | IC50 [9] | Ratio IC50 [11] | CI [12] | Ratio IC50 [13] | CI [14] |
| --- | --- | --- | --- | --- | --- | --- | --- | --- | --- | --- | --- | --- | --- | --- |
| 72.88 | Dose-dependent effect | 784 | 746 | 31.88 | 2278 | 2262 | CC[C@H]1CN(C)[C@H]2Cc3c([nH]c4ccccc34)/C(=N/NC(=O)OCc3ccc(OC)cc3)C[C@H]1[C@@H]2C(=O)OC | 0.16 | 34.3 µM | > 100 µM | 0.65 |  |  |  |
| 30.98 | Dose-dependent effect | 808 | 805 | 1.27 | 2301 | 2244 | CC[C@H]1CN(C)[C@H]2Cc3c([nH]c4ccccc34)/C(=N/NC(=S)NCc3cccnc3)C[C@H]1[C@@H]2C(=O)OC |  | 20.8 µM | 50.9 µM | 0.46 | 0.6 | 2.45 |  |
| 60.89 | Dose-dependent effect | 1046 | 1071 | 8.84 | 2158 | 2183 | CC[C@H]1CN(C)[C@H]2Cc3c([nH]c4ccccc34)/C(=N/Nc3ccccc3)C[C@H]1[C@@H]2C(=O)OC |  | 44.2 µM | > 100 µM | 0.84 | 0.34 |  |  |
| 55.74 | Dose-dependent effect | 1217 | 1193 | 4.82 | 2449 | 2417 | CC[C@H]1CN(C)[C@H]2Cc3c(n(Cc4ccccc4)c4ccccc34)C(=O)C[C@H]1[C@@H]2C(=O)OC | 0.23 | 33.3 µM | 56.1 µM | 0.87 |  | 1.68 |  |
| 51.15 | Dose-dependent effect | 1120 | 1226 | 2.99 | 2242 | 2242 | CC[C@H]1CN(C)[C@H]2Cc3c([nH]c4ccccc34)C(=S)C[C@H]1[C@@H]2C(=O)OC |  | 54.5 µM | > 100 µM | 0.7 |  |  | 0.22 |
